Data on 17 compounds can be found in patent publication US10752588B2 (The Broad Institute, Inc., priority 2014, dated 2020).

pEC50, pIC50: −log10 of the molar value. Some results are limits rather than exact numbers.

In test [1] the target is T1, human D2R/β-arrestin (Homo sapiens (Human), UniProt P14416). Nature of the test: Gi/cAMP agonist assay (Lance Ultra cAMP, Forskolin). The format is cell-based. To be noted: CHO-K1 cell line expressing human D2R/β-arrestin. The method in brief:
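Read-out was Lance Ultra competitive TR-FRET (Eu-cAMP tracer plus ULight-anti-cAMP) following forskolin-induced cAMP production. Before forskolin stimulation, compounds were pin-transferred onto the seeded cells for 10 min at 37 °C.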

The target of test [2] is T1, human D2R/β-arrestin. Nature of the test: cell-based. To be noted: cAMP Antagonist, CHO-K1 cell line expressing human D2R/β-arrestin; quinpirole used as agonist.
Test [3] concerns the target T1, human D2R/β-arrestin. The test can be described thus: β-Arrestin agonist assay (PathHunter). Format: cell-based. The settings on record: CHO-K1 cell line expressing human D2R/β-arrestin. The method in brief: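 Readout follows addition of Buffer:Emerald II:Galactor-Star reagent (19:5:1) to agonist-treated plates, measured as luminescence or fluorescence.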
The target of test [4] is T1, human D2R/β-arrestin. The test can be described thus: cell-based. The settings on record: β-arrestin Antagonist, CHO-K1 cell line expressing human D2R/β-arrestin; quinpirole used as agonist.

T1 sequence (P14416 whole entry): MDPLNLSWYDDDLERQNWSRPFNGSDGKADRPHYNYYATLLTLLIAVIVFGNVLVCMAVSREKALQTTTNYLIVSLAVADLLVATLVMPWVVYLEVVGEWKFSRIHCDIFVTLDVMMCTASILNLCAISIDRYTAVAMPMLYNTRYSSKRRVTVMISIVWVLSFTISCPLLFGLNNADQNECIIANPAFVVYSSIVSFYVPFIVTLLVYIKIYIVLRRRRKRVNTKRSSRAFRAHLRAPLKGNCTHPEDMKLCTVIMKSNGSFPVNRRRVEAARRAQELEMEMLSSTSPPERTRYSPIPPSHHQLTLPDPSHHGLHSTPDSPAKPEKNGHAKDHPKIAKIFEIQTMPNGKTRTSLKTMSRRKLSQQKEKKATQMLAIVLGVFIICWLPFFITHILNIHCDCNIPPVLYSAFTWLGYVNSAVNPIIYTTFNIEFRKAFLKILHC

For orientation: pEC50 means −log10 of the EC50, conventionally taken in molar units. The low end stands for a large EC50, the high end for a small EC50. For orientation: pIC50 means the negative decadic logarithm of the IC50, by convention in mol/L. Low readings indicate a large IC50, high ones a small IC50. For `O=C(NC(c1ccc(F)cc1)c1ccccn1)C1CCN(CCOc2c(F)cccc2F)CC1` (centres unmarked) [Compound 56, 1-(2-(2,6-difluorophenoxy)ethyl)-N-((4-fluorophenyl)(pyridin-2-yl)methyl) piperidine-4-carboxamide], the pEC50 on human D2R/β-arrestin [1] and on human D2R/β-arrestin [3] was less than 4.52 in each case. For the same compound, the negative logarithm of the IC50 (pIC50) on human D2R/β-arrestin [2] and on human D2R/β-arrestin [4] was 6.00 to 7.00 in each case.
On to `COc1cccc(C(NC(=O)C2CCN(CCOc3ccccc3Cl)CC2)c2ccccn2)c1` (centres unmarked) [Compound 21, 1-(2-(2-chlorophenoxy)ethyl)-N-((3-methoxyphenyl)(pyridin-2-yl)methyl) piperidine-4-carboxamide], for which the pEC50 at human D2R/β-arrestin [1] and on human D2R/β-arrestin [3] was less than 4.52 throughout. Moreover, the pIC50 on human D2R/β-arrestin [2] and at human D2R/β-arrestin [4] was 6.00 to 7.00 in each case.
Consider `COc1cccc(OCCN2CCC(C(=O)NC(c3ccc(Cl)cc3)c3ccccn3)CC2)c1` (centres unmarked) [Compound 12, N-((4-chlorophenyl) (pyridin-2-yl)methyl)-1-(2-(3-methoxyphenoxy)ethyl) piperidine-4-carboxamide], for which the pEC50 at human D2R/β-arrestin [1] was 4.52 to 5.00; at human D2R/β-arrestin [3], less than 4.52. For the same compound, the pIC50 was 6.00 to 7.00 at human D2R/β-arrestin [2] and 5.00 to 6.00 at human D2R/β-arrestin [4].
Turning to `CC(C1CCN(CCOc2ccccc2)CC1)N(C)C(c1ccc(Cl)cc1)c1ccccn1` (single isomer, unassigned) [Compound 97a, N-((4-chlorophenyl)(pyridin-2-yl)methyl)-N-methyl-1-(1-(2-phenoxyethyl)piperidin-4-yl)ethan-1-amine], the pEC50 on human D2R/β-arrestin [1] was 6.00 to 7.00; on human D2R/β-arrestin [3], less than 4.52. Moreover, the pIC50 at human D2R/β-arrestin [2] is 6.00 to 7.00; on human D2R/β-arrestin [4] it was 5.00 to 6.00.
With `CC1(C(=O)NC(c2ccc(F)cc2)c2ccccn2)CCN(CCOc2ccccc2)CC1` (single isomer, unassigned) [Compound 69a, N-((4-fluorophenyl)(pyridin-2-yl)methyl)-4-methyl-1-(2-phenoxyethyl)piperidine-4-carboxamide], the pEC50 on human D2R/β-arrestin [1] and at human D2R/β-arrestin [3] was 6.00 to 7.00 throughout. Moreover, the pIC50 at human D2R/β-arrestin [2] is less than 4.52; on human D2R/β-arrestin [4], 5.00 to 6.00.
As for `COCCN1CCC(C(=O)NC(c2ccc(Cl)cc2)c2ccccn2)CC1` (centres unmarked) [Compound 65, N-((4-chlorophenyl)(pyridin-2-yl)methyl)-1-(2-methoxyethyl)piperidine-4-carboxamide], the pEC50 on human D2R/β-arrestin [1] and on human D2R/β-arrestin [3] was less than 4.52 each time. Also, the pIC50 is 5.00 to 6.00 at human D2R/β-arrestin [2] and 4.52 to 5.00 on human D2R/β-arrestin [4].
On to `CN(CC1CCN(CCOc2ccccc2F)CC1)C(c1ccc2c(c1)OCO2)c1ccccn1` (centres unmarked) [Compound 138, 1-(benzo[d][1,3]dioxol-5-yl)-N-((1-(2-(2-fluorophenoxy)ethyl)piperidin-4-yl)methyl)-N-methyl-1-(pyridin-2-yl)methanamine], for which the pEC50 at human D2R/β-arrestin [1] is 6.00 to 7.00; at human D2R/β-arrestin [3], less than 4.52. The pIC50 is less than 4.52 at human D2R/β-arrestin [2] and 6.00 to 7.00 on human D2R/β-arrestin [4].
As for `O=C(NC(c1ccccn1)c1ccccc1C(F)(F)F)C1CCN(CCOc2ccccc2)CC1` (centres unmarked) [Compound 33, 1-(2-phenoxyethyl)-N-(pyridin-2-yl(2-(trifluoromethyl)phenyl)methyl) piperidine-4-carboxamide], the pEC50 on human D2R/β-arrestin [1] is 5.00 to 6.00; on human D2R/β-arrestin [3] it was less than 4.52. For the same compound, the figures for the pIC50 on human D2R/β-arrestin [2] and on human D2R/β-arrestin [4] were less than 4.52 and 4.52 to 5.00, respectively.
On to `CN(CC1CCN(CCOc2ccccc2)CC1)C(c1ccc(Cl)cc1)c1ccccn1` (single isomer, unassigned) [Compound 79a, 1-(4-chlorophenyl)-N-methyl-N-((1-(2-phenoxyethyl)piperidin-4-yl)methyl)-1-(pyridin-2-yl)methanamine], for which the pEC50 on human D2R/β-arrestin [1] and at human D2R/β-arrestin [3] was less than 4.52 throughout. In addition, the pIC50 at human D2R/β-arrestin [2] and at human D2R/β-arrestin [4] was 5.00 to 6.00 in each case.
For `COc1cccc(C(c2ccccn2)N(CC2CCN(CCOc3ccccc3F)CC2)C(C)C)c1` (centres unmarked) [Compound 134, N-((1-(2-(2-fluorophenoxy)ethyl)piperidin-4-yl)methyl)-N-((3-methoxyphenyl)(pyridin-2-yl)methyl)propan-2-amine], the pEC50 at human D2R/β-arrestin [1] is more than 7.00; on human D2R/β-arrestin [3], less than 4.52. The pIC50 at human D2R/β-arrestin [2] and at human D2R/β-arrestin [4] was 6.00 to 7.00 each time.
Take `COc1cccc(C(c2ccccn2)N(C)CC2CCN(CCOc3ccccc3F)CC2)c1` (centres unmarked) [Compound 77, N-((1-(2-(2-fluorophenoxy)ethyl)piperidin-4-yl)methyl)-1-(3-methoxyphenyl)-N-methyl-1-(pyridin-2-yl)methanamine]: the figures for the pEC50 on human D2R/β-arrestin [1] and at human D2R/β-arrestin [3] were more than 7.00 and less than 4.52, respectively. The figures for the pIC50 at human D2R/β-arrestin [2] and at human D2R/β-arrestin [4] were 5.00 to 6.00 and 6.00 to 7.00, respectively.
For `FC(F)(F)CN(CC1CCN(CCOc2ccccc2)CC1)C(c1ccc(Cl)cc1)c1ccccn1` (single isomer, unassigned) [Compound 125b, N-((4-chlorophenyl)(pyridin-2-yl)methyl)-2,2,2-trifluoro-N-((1-(2-phenoxyethyl)piperidin-4-yl)methyl)ethanamine], in that order: less than 4.52, less than 4.52, 5.00 to 6.00 and 6.00 to 7.00.
As to `CC1(C(=O)NC(c2ccc(F)cc2)c2ccccn2)CCN(CCOc2ccccc2F)CC1` (centres unmarked) [Compound 71, 1-(2-(2-fluorophenoxy)ethyl)-N-((4-fluorophenyl)(pyridin-2-yl)methyl)-4-methylpiperidine-4-carboxamide], the pEC50 at human D2R/β-arrestin [1] and on human D2R/β-arrestin [3] was more than 7.00 in each case. The values for the pIC50 at human D2R/β-arrestin [2] and on human D2R/β-arrestin [4] were less than 4.52 and 6.00 to 7.00, respectively.
For the compound `COc1cccc(C(NC(=O)C2CCN(CCOc3ccc(F)cc3F)CC2)c2ccccn2)c1` (centres unmarked) [Compound 145, 1-(2-(2,4-difluorophenoxy)ethyl)-N-((3-methoxyphenyl)(pyridin-2-yl)methyl)piperidine-4-carboxamide], the pEC50 is 4.52 to 5.00 at human D2R/β-arrestin [1] and less than 4.52 on human D2R/β-arrestin [3]. The pIC50 on human D2R/β-arrestin [2] and on human D2R/β-arrestin [4] was 5.00 to 6.00 each time.
Take `O=C(NC(c1ccc(Cl)cc1)c1ccccn1)C1CCN(CCOc2ccccn2)CC1` (centres unmarked) [Compound 141, N-((4-chlorophenyl)(pyridin-2-yl)methyl)-1-(2-(pyridin-2-yloxy)ethyl)piperidine-4-carboxamide]: the pEC50 at human D2R/β-arrestin [1] and on human D2R/β-arrestin [3] was less than 4.52 throughout. For the same compound, the pIC50 on human D2R/β-arrestin [2] and on human D2R/β-arrestin [4] was 5.00 to 6.00 each time.
On to `Clc1ccc(C(NCC2CCN(CCOc3ccccc3)CC2)c2ccccn2)cc1` (single isomer, unassigned) [Compound 114b, 1-(4-chlorophenyl)-N-((1-(2-phenoxyethyl)piperidin-4-yl)methyl)-1-(pyridin-2-yl)methanamine], for which the pEC50 at human D2R/β-arrestin [1] is 6.00 to 7.00; on human D2R/β-arrestin [3], less than 4.52. Besides, the pIC50 was less than 4.52 on human D2R/β-arrestin [2] and 6.00 to 7.00 on human D2R/β-arrestin [4].
As to `CN1CCC(C(=O)NC(c2ccc(Cl)cc2)c2ccccn2)CC1` (centres unmarked) [Compound 64, N-((4-chlorophenyl)(pyridin-2-yl)methyl)-1-methylpiperidine-4-carboxamide], the pEC50 on human D2R/β-arrestin [1] and at human D2R/β-arrestin [3] was less than 4.52 each time. Further, the values for the pIC50 at human D2R/β-arrestin [2] and on human D2R/β-arrestin [4] were 5.00 to 6.00 and 4.52 to 5.00, respectively.
